Data set [1] has as its system MV4–11-luc cells. Description: In vivo efficacy, orthotopic human AML model. Conditions: for reduction in leukemia burden: 25 mg/kg i.p. three times a week (MWF), NSG or NRG mice. As to the method:
The in vivo efficacy of compounds was assessed in an orthotopic human AML model in NSG (NOD scid gamma, NOD-scid IL2Rg^null) mice that were bred at University of Maryland Baltimore (mating pairs acquired from Jackson Laboratories; Maine). […]. Three days later, engraftment was assessed by imaging on a Xenogen IVIS-2 Imaging System (Alameda) after an intraperitoneal (IP) injection of 150 mg/kg luciferin. Mice were sorted into four or five groups (n = 5) so that mean intensity (i.e., disease burden) was equal. Dosing started on day of sorting. Compounds were dissolved in 85% PBS (pH 7.4) buffer containing 10% DMSO and 5% Cremophore. The vehicle (buffer without compounds) was used as control. Mice were injected 3 to 5 days per week via IP injection. Mice were weighed on day of dosing and imaged once per week. […]. All mice were housed in a 12-h light/dark cycle with access to food and water ad libitum. Studies were performed with Institutional Animal Care and Use Committee (UMB and Purdue University) approval.
[…]. Female mice were dosed daily for 5 days via intraperitoneal injection and then monitored for an additional week for weight loss, a sign of toxicity in mice. […] To evaluate the anti-leukemic efficacy in vivo, six-week-old female NSG or NRG mice were injected intravenously with FLT3-ITD expressing acute myeloid leukemia cells (MV4–11), expressing luciferase. […] Dosing (i.p) with the compounds was then started. The mice were dosed with 25 mg/kg of the compounds three times a week (MWF). […] […].

The target in data set [2] is T1, Src (Homo sapiens, UniProt P12931).
T1 construct: purchased Invitrogen PR4336E
Description: Cell-free kinase assay (Reaction Biology, ADP-Glo). It counts as biochemical. Conditions: for inhibition at 0.5 µM: inhibitor 500 nM, 100 μM ATP, average of duplicate. The protocol: (§1) Cell-free kinase activity assays were performed at Reaction Biology Corporation. Briefly, kinases were incubated with substrates, 100 μM ATP and a 3-fold serial dilution of compounds starting at 1 μM. DMSO was used as control. […] Experiments were performed in duplicates. The concentrations of kinases and substrates used in the assays are indicated on Table S1. Kinase activity was quantified using the ADP-Glo™ Kinase Assay System (Promega, Madison, WI) following the manufacturer's recommendations.

Data set [3] deals with T2, FLT3 (Homo sapiens, UniProt P36888).
T2 construct: purchased Invitrogen PV3182
T2 sequence (P36888 564-993 limits assumed): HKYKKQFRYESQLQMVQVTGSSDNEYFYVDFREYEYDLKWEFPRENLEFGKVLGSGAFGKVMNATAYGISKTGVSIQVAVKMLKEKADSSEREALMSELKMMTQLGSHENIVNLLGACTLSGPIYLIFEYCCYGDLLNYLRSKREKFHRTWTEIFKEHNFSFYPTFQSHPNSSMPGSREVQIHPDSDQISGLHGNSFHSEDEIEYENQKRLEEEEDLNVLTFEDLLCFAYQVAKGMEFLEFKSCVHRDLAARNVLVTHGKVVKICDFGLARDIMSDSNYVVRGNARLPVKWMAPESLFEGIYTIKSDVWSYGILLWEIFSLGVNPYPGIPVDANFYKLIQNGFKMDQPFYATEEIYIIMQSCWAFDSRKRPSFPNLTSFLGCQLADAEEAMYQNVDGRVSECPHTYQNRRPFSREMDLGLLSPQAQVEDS
Description: Cell-free kinase assay, single dose (Reaction Biology, ADP-Glo). The class given is biochemical. Particulars: inhibitor 500 nM; 100 μM ATP; average of duplicate. The protocol: Cell-free kinase activity assays were performed at Reaction Biology Corporation. […] DMSO was used as control. […] Experiments were performed in duplicates. The concentrations of kinases and substrates used in the assays are indicated on Table S1. Kinase activity was quantified using the ADP-Glo™ Kinase Assay System (Promega, Madison, WI) following the manufacturer's recommendations.
A general note: ADP-Glo first removes unused ATP, then detects ADP through luciferase.

The subject of data set [4] is MOLM-14 (ITD, D835Y) cells. Description: Antiproliferative activity (CellTitre-Blue, 72 h). The class given is cell-based, human. Particulars: 72 h incubation, triplicates, read-out: IC50 (mean ±SD, nM) MOLM-14 (ITD, D835Y). As to the method:
(§2) Cells were seeded into 96-well tissue culture-treated plates at 2.0 × 10^4 cells/mL for up to 24 h. DMSO stock solutions of compounds were serially diluted first in DMSO and subsequently into RPMI before being added to the cell cultures in triplicates, with 10 μM being the highest tested concentration. The plates were incubated for 72 h as above. The CellTitre-Blue assay (Promega, Madison WI) was then added to the cultures and incubated a further 4 h before the fluorescence measured following the manufacturers recommendations. The fluorescence data from compounds were normalized to that DMSO and the resulting data fitted to a non-linear regression equation to obtain IC50 using GraphPad Prism 5.0 Software (La Jolla, CA, USA).

Data set [5] concerns MOLM-14 (ITD, F691 L) cells. Description: Antiproliferative activity (CellTitre-Blue, 72 h). It counts as cell-based, human. Particulars: 72 h incubation, triplicates, read-out: IC50 (mean ±SD, nM) MOLM-14 (ITD, F691 L). As to the method: as §2
Data set [6] concerns MOLM-14 cells. Description: Antiproliferative activity (CellTitre-Blue, 72 h). The class given is cell-based, human. Conditions: Homo sapiens, MOLM-14; 72 h incubation, triplicates; read-out: IC50 (mean ±SD, nM) MOLM-14. The protocol:
as §2

Data set [7] deals with MV4–11 cells. Description: Antiproliferative activity (CellTitre-Blue, 72 h). The class given is cell-based, human. Conditions: Homo sapiens, MV4-11, 72 h, 72 h incubation, triplicates; read-out: IC50 (mean ±SD, nM) MV4–11. As to the method:
as §2

Data set [8] addresses FLT3-ITD (Homo sapiens, UniProt P36888, ITD). Description: Cell-free kinase assay, dose-response (Reaction Biology, ADP-Glo). It counts as biochemical. Particulars: FLT3-ITD 100 nM; ATP 100 μM; read-out: IC50 against FLT3-ITD. As to the method: as §1

Structures are written as SMILES. Where two headings read alike, the source gives them in different places.

T1 sequence (P12931 whole entry): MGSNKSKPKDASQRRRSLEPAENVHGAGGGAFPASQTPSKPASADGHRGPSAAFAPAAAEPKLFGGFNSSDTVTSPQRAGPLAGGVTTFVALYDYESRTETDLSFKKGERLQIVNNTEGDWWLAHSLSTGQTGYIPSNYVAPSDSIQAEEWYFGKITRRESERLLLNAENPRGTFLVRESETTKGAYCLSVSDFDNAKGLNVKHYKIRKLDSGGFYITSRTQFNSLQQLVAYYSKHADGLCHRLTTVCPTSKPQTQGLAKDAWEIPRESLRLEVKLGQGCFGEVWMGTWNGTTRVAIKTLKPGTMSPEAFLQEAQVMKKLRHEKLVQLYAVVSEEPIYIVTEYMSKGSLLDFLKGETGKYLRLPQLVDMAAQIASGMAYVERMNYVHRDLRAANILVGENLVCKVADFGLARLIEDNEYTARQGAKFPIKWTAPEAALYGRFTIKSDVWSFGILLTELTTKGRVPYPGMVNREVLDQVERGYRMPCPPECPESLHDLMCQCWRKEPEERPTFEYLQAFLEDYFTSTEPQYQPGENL

By inhibition is commonly meant the percentage by which the read-out fell short of the control. Low readings indicate a weak effect, high ones a strong effect. As usually defined, the IC50 is the point on the concentration scale where inhibition reaches its midpoint. With `Cc1ncc(C(=O)Nc2ccc(CN3CCN(C)CC3)c(C(F)(F)F)c2)cc1C#Cc1c(N)ncc2ccccc12` [Compound 5], the “reduction in leukemia burden” value in data set [1] is over 99%. The inhibition at 0.5 µM worked out at 100% in data set [2] and 99% in data set [3]. Further, the IC50 worked out at 13 ± 0.4 nM in data set [4] (Homo sapiens, MOLM-14, 72 h); 1.5 ± 0.1 nM in data set [5] (Homo sapiens, MOLM-14, 72 h); 2.8 ± 0.02 nM in data set [6]; 0.4 ± 0.004 nM in data set [7].
As to `Cc1ncc(C(=O)Nc2ccc(CN3CCN(C)CC3)c(C(F)(F)F)c2)cc1C#Cc1cnc(N)c2ncccc12` [Compound 20], the “body weight in efficacy study” value in data set [1] (25 mg/Kg i.p. three times a week, after one week) was “lost weight”. Moreover, the “reduction in leukemia burden” value in data set [1] is recorded as over 99%. Further, the “tolerability in efficacy study” value in data set [1] (dose reduced to 10 mg/kg) is on record as “tolerable”. In addition, the IC50 in data set [2] (Src 0.6 nM, ATP 100 μM, read-out: IC50 against Src) stood at 12.2 nM; in data set [8], 4.8 nM; in data set [4] (listed as 20 (HSN459)), 4 ± 0.02 nM; in data set [5] (listed as 20 (HSN459)), 0.9 ± 0.004 nM; in data set [6] it was 0.2 ± 0.002 nM; in data set [7] it was 0.3 ± 0.004 nM. Besides, the inhibition at 0.5 µM in data set [2] came out at 100%; in data set [3], 97%.

The record behind these values is publication PMC6413339 (EBioMedicine, 2019).
